Among the data in patent US7652153B2, “Caspase inhibitors and uses thereof” (Vertex Pharmaceuticals Incorporated, priority 2004, dated 2010) are Ki values, retold here.

The target in experiment [1] is T1, caspase-1 (Homo sapiens, UniProt P29466).
T1 sequence (P29466 120-297 limits assumed): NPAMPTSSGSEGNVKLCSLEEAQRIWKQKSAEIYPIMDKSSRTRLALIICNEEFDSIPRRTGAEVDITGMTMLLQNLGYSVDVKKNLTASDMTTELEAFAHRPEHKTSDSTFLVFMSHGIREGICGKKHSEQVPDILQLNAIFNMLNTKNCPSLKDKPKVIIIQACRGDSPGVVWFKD
T1 sequence (P29466 317-404 limits assumed): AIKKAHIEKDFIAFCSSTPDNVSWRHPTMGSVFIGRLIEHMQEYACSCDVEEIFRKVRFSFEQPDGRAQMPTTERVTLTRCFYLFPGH
The experiment is described as follows: Caspase-1 enzyme inhibition (Ki, method of Margolin et al.). To be noted: Suc-YVAD-pNA substrate 80 μM, 37° C., pH 7.5; read-out: Ki C1. Format: biochemical. The protocol:
(§1) Compounds of this invention may be tested using the methods described below.
(§2) In Vitro Assays Enzyme Inhibition
(§3) Ki values for test compounds with caspase-1 and caspase-8 were obtained by the method of Margolin et al. (J. Biol. Chem., 272 pp. 7223-7228 (1997)). Other caspases may be assayed similarly (see, e.g., WO 99/47545). Assays were performed in 10 mM Tris (Sigma Corp, St Louis Mo.) pH 7.5, 1 mM Dithiothreitol (DTT, Research Organic INC, Cleveland, Ohio) and 0.1% CHAPS (Pierce, Rockford Ill.) at 37° C. For caspase-3, a solution of 8% glycerol was added to the assay buffer to improve enzyme stability. A 65 μL aliquot of the assay buffer and 5 μL aliquot of the appropriate dilutions of inhibitor in DMSO where pipetted into a 96 well plate, treated with 10 μL of caspase, then diluted in assay buffer (0.5-40 nM active protein by active site titration). A control containing DMSO but no compound was included for each determination. The plates were then incubated for 15 minutes at 37° C., before addition of the appropriate substrate (20 μL, final concentration 1-4×KM, final assay volume 100 μL) to initiate the reaction. Reaction rates were measured at 37° C. either by following the time dependant increase in absorbance at 405 nm (for the pNA substrates) or in fluorescence (Ex 390, Em 460) (for the AMC substrates). The rates obtained were plotted against inhibitor concentration and the data fit to the Morrison tight-binding equation for competitive inhibitors (Morrison, J. F., Biochem. Biophys. Acta, 185 pp. 269-286 (1969)). The substrates used for the individual assays were as follows:
Caspase-1 Suc-YVAD-pNA (Bachem, King of Prussia, Pa.) (final concentration in the assay 80 μM);

For experiment [2], the target named is caspase-8 (Homo sapiens, UniProt Q14790). The experiment is described as follows: Caspase-8 enzyme inhibition (Ki, method of Margolin et al.). Format: biochemical. The conditions noted are these: Ac-DEVD-pNA substrate 80 μM, 37° C., pH 7.5; read-out: Ki C8. The method, then:
as §1, §2, §3
Caspase-8 Ac-DEVD-pNA (Bachem, King of Prussia, Pa.) (final concentration in assay 80 μM).

A value given as a limit tells only on which side of the number the result lay.

Sequence of caspase-8 (Q14790 217-374 limits assumed, species assumed): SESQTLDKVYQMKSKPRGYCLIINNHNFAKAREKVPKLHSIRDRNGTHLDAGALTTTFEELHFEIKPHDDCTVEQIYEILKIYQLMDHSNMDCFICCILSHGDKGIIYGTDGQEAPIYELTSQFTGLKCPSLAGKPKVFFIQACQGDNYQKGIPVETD
Sequence of caspase-8 (Q14790 385-479 limits assumed, species assumed): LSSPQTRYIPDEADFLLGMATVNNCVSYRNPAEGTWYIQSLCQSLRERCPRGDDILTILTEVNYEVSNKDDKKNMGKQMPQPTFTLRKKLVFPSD

`Cc1ccncc1C(=O)N[C@H](C(=O)N1CCC[C@H]1C(=O)N[C@H](C=O)CC(=O)O)C(C)C` [II-16, (S,S,S)-(3S)-[(1-{3-Methyl-(2S)-[(4-methyl-pyridine-3-carbonyl)-amino]-butyryl}-pyrrolidine-(2S)-carbonyl)-amino]-4-oxo-butyric acid]: the Ki was less than 10 nM in experiment [1] and 21 to 30 nM in experiment [2].
The matching figures for `CC(C)C(=O)Nc1cccc(C(=O)N[C@H](C(=O)N2C3CC[C@@H](C3)[C@H]2C(=O)N[C@H](C=O)CC(=O)O)C(C)(C)C)c1Cl` (stereo in doubt) [II-59, (3S)-({2-[(2S)-(2-Chloro-3-isobutyrylamino-benzoylamino)-3,3-dimethyl-butyryl]-2-(1S,4R)-aza-bicyclo[2.2.1]heptane-(3S)-carbonyl}-amino)-4-oxo-butyric acid]: less than 10 nM and less than 10 nM.
For the molecule `CC(C)[C@H](NC(=O)c1ccnc(Cl)c1Cl)C(=O)N1CCC[C@H]1C(=O)N[C@H](C=O)CC(=O)O` [II-18, (S,S,S)-(3S)-[(1-{(2S)-[(2,3-Dichloro-pyridine-4-carbonyl)-amino]-3-methyl-butyryl}-pyrrolidine-(2S)-carbonyl)-amino]-4-oxo-butyric acid], the Ki in experiment [1] is less than 10 nM; in experiment [2], 10 to 20 nM.
The matching figures for `CC(C)(C)[C@H](NC(=O)c1ccccc1C(F)(F)F)C(=O)N1CCC[C@H]1C(=O)N[C@H](C=O)CC(=O)O` [II-29, (S,S,S)-(3S)-({1-[3,3-Dimethyl-(2S)-(2-trifluoromethyl-benzoylamino)-butyryl]-pyrrolidine-(2S)-carbonyl}-amino)-4-oxo-butyric acid]: less than 10 nM and less than 10 nM.
The corresponding values for `Cc1ccccc1C(=O)N[C@H](C(=O)N1CCC[C@H]1C(=O)N[C@H](C=O)CC(=O)O)C(C)(C)C` [II-26, (S,S,S)-(3S)-({1-[3,3-Dimethyl-(2S)-(2-methyl-benzoylamino)-butyryl]-pyrrolidine-(2S)-carbonyl}-amino)-4-oxo-butyric acid] are less than 10 nM and less than 10 nM.
The corresponding values for `COc1cccc(C(=O)N[C@H](C(=O)N2CCC[C@H]2C(=O)N[C@H](C=O)CC(=O)O)C(C)C)c1C` [II-1, (S,S,S)-(3S)-({1-[(2S)-(3-Methoxy-2-methyl-benzoylamino)-3-methyl-butyryl]-pyrrolidine-(2S)-carbonyl}-amino)-4-oxo-butyric acid] are less than 10 nM and less than 10 nM.
As to `COc1cccc(C(=O)N[C@H](C(=O)N2[C@@H]3CC[C@@H](C3)[C@H]2C(=O)NC(C=O)CC(=O)O)C(C)(C)C)c1C` (stereo in doubt) [II-55, (3S)-({2-[(2S)-(3-Methoxy-2-methyl-benzoylamino)-3,3-dimethyl-butyryl]-2-(1S,4R)-aza-bicyclo[2.2.1]heptane-(3S)-carbonyl}-amino)-4-oxo-butyric acid], the Ki in experiment [1] and in experiment [2] was less than 10 nM in each case.
With `CC(C)[C@H](NC(=O)c1c(Cl)cncc1Cl)C(=O)N1CCC[C@H]1C(=O)N[C@H](C=O)CC(=O)O` [II-19, (S,S,S)-(3S)-[(1-{(2S)-[(3,5-Dichloro-pyridine-4-carbonyl)-amino]-3-methyl-butyryl}-pyrrolidine-(2S)-carbonyl)-amino]-4-oxo-butyric acid], the Ki is 10 to 20 nM in experiment [1] and less than 10 nM in experiment [2].
Regarding `Cc1ccccc1C(=O)N[C@H](C(=O)N1CCC[C@H]1C(=O)N[C@H](C=O)CC(=O)O)C(C)C` [II-3, (S,S,S)-(3S)-({1-[3-Methyl-(2S)-(2-methyl-benzoylamino)-butyryl]-pyrrolidine-(2S)-carbonyl}-amino)-4-oxo-butyric acid], the Ki in experiment [1] and in experiment [2] was less than 10 nM each time.
With `Cc1c(O)cccc1C(=O)N[C@H](C(=O)N1CCC[C@H]1C(=O)N[C@H](C=O)CC(=O)O)C(C)C` [II-6, (S,S,S)-(3S)-({1-[(2S)-(3-Hydroxy-2-methyl-benzoylamino)-3-methyl-butyryl]-pyrrolidine-(2S)-carbonyl}-amino)-4-oxo-butyric acid], the Ki in experiment [1] and in experiment [2] was less than 10 nM throughout.
As for `CCC(=O)Nc1ccc(C(=O)N[C@H](C(=O)N2C3CC[C@@H](C3)[C@H]2C(=O)NC(C=O)CC(=O)O)C(C)(C)C)c(Cl)c1` (stereo in doubt) [II-58, (3S)-({2-[(2S)-(2-Chloro-4-propionylamino-benzoylamino)-3,3-dimethyl-butyryl]-2-(1S,4R)-aza-bicyclo[2.2.1]heptane-(3S)-carbonyl}-amino)-4-oxo-butyric acid], the inhibitory constant (Ki) in experiment [1] and in experiment [2] was less than 10 nM each time.
In the case of `CC(=O)Nc1cccc(C(=O)N[C@H](C(=O)N2CCC[C@H]2C(=O)N[C@H](C=O)CC(=O)O)C(C)(C)C)c1C` [II-42, (S,S,S)-(3S)-({1-[(2S)-(2-methyl-3-acetamido-benzoylamino)-3,3-dimethyl-butyryl]-pyrrolidine-(2S)-carbonyl}-amino)-4-oxo-butyric acid], the figures for the Ki in experiment [1] and in experiment [2] were less than 10 nM and 10 to 20 nM, respectively.
As to `O=C[C@H](CC(=O)O)NC(=O)[C@@H]1CCCN1C(=O)[C@H](Cc1cscn1)NC(=O)c1ccccc1Cl` [II-25, (S,S,S)-(3S)-({1-[(2S)-(2-Chloro-benzoylamino)-3-thiazol-4-yl-propionyl]-pyrrolidine-(2S)-carbonyl}-amino)-4-oxo-butyric acid], the inhibition constant Ki in experiment [1] is less than 10 nM; in experiment [2] it was 21 to 30 nM.
Turning to `CC(C)(C)[C@H](NC(=O)c1cccc(OCC2CC2)c1Cl)C(=O)N1CCC[C@H]1C(=O)N[C@H](C=O)CC(=O)O` [II-38, (S,S,S)-(3S)-({1-[(2S)-(2-Chloro-3-cyclopropylmethoxy-benzoylamino)-3,3-dimethyl-butyryl]-pyrrolidine-(2S)-carbonyl}-amino)-4-oxo-butyric acid], the Ki in experiment [1] and in experiment [2] was less than 10 nM throughout.
In the case of `COc1cccc(C(=O)N[C@H](C(=O)N2CCC[C@H]2C(=O)N[C@H](C=O)CC(=O)O)C(C)(C)C)c1C` [II-20, (S,S,S)-(3S)-({1-[(2S)-(3-Methoxy-2-methyl-benzoylamino)-3,3-dimethyl-butyryl]-pyrrolidine-(2S)-carbonyl}-amino)-4-oxo-butyric acid], the Ki in experiment [1] and in experiment [2] was less than 10 nM in each case.
Take `CCc1cccc(C(=O)N[C@H](C(=O)N2CCC[C@H]2C(=O)N[C@H](C=O)CC(=O)O)C(C)(C)C)c1Cl` [II-36, (S,S,S)-(3S)-({1-[(2S)-(2-Chloro-3-ethyl-benzoylamino)-3,3-dimethyl-butyryl]-pyrrolidine-(2S)-carbonyl}-amino)-4-oxo-butyric acid]: the Ki in experiment [1] and in experiment [2] was less than 10 nM throughout.
Turning to `CC(C)(C)[C@H](NC(=O)c1cccc(OC(F)(F)F)c1Cl)C(=O)N1CCC[C@H]1C(=O)N[C@H](C=O)CC(=O)O` [II-32, (S,S,S)-(3S)-({1-[(2S)-(2-Chloro-3-trifluoromethoxy-benzoylamino)-3,3-dimethyl-butyryl]-pyrrolidine-(2S)-carbonyl}-amino)-4-oxo-butyric acid], the Ki in experiment [1] and in experiment [2] was less than 10 nM in each case.
With `CC(C)C(=O)Nc1ccc(C(=O)N[C@H](C(=O)N2CCC[C@H]2C(=O)N[C@H](C=O)CC(=O)O)C(C)(C)C)c(Cl)c1` [II-49, (S,S,S)-(3S)-({1-[(2S)-(2-chloro-4-isobutyrylamido-benzoylamino)-3,3-dimethyl-butyryl]-pyrrolidine-(2S)-carbonyl}-amino)-4-oxo-butyric acid], the Ki in experiment [1] and in experiment [2] was less than 10 nM each time.
As for `COc1cccc(C(=O)N[C@H](C(=O)N2C3CC[C@@H](C3)[C@H]2C(=O)N[C@H](C=O)CC(=O)O)C(C)(C)C)c1F` (stereo in doubt) [II-60, (3S)-({2-[(2S)-(2-Fluoro-3-methoxy-benzoylamino)-3,3-dimethyl-butyryl]-2-(1S,4R)-aza-bicyclo[2.2.1]heptane-(3S)-carbonyl}-amino)-4-oxo-butyric acid], the Ki in experiment [1] and in experiment [2] was less than 10 nM each time.
For the molecule `CC(C)[C@H](NC(=O)c1c(N)cccc1Cl)C(=O)N1CCC[C@H]1C(=O)N[C@H](C=O)CC(=O)O` [II-53, (S,S,S)-(3S)-({1-[(2S)-(2-chloro-6-amino-benzoylamino)-3-methyl-butyryl]-pyrrolidine-(2S)-carbonyl}-amino)-4-oxo-butyric acid], the Ki is less than 10 nM in experiment [1] and 21 to 30 nM in experiment [2].

A word on the Ki: it is a measure of affinity in units of concentration, obtained from inhibition or displacement.
